Experimental data reported in patent US9232796B2, “Herbicidal compositions comprising 4-amino-3-chloro-5-fluoro-6-(4-chloro-2-fluoro-3-methoxyphenyl) pyridine-2-carboxylic acid or a derivative thereof and acetyl-CoA carboxylase (ACCase) inhibitors” (DOW AGROSCIENCES LLC, priority 2012, dated 2016).

What was measured:
ALOMY = assay: Example IV postemergence foliar-applied, greenhouse, cereal crops weeds; type: in vivo, Alopecurus myosuroides Huds.
Description: (§1) Seeds of the desired test plant species were planted in Sun Gro MetroMix® 306 planting mixture, which typically has a pH of 6.0 to 6.8 and an organic matter content of about 30 percent, in plastic pots with a surface area of 103.2 square centimeters (cm^2). When required to ensure good germination and healthy plants, a fungicide treatment and/or other chemical or physical treatment was applied. The plants were grown for 7-36 days in a greenhouse with an approximate 14 hour photoperiod which was maintained at about 18° C. during the day and about 17° C. during the night. Nutrients and water were added on a regular basis and supplemental lighting was provided with overhead metal halide 1000-Watt lamps as necessary. The plants were employed for testing when they reached the second or third true leaf stage.
(§2) Treatments consisted of the benzyl ester of 4-amino-3-chloro-5-fluoro-6-(4-chloro-2-fluoro-3-methoxy-phenyl)pyridine-2-carboxylic acid (Compound A), formulated as an SC, a second cereal herbicide alone and then both in combination.
(§3) Other herbicidal components were applied on an active ingredient basis and included acetyl-CoA carboxylase (ACCase)-inhibiting herbicides clodinafop-propargyl, fenoxaprop-P-ethyl, pinoxaden and tralkoxydim.
(§4) Measured aliquots of benzyl ester of 4-amino-3-chloro-5-fluoro-6-(4-chloro-2-fluoro-3-methoxy-phenyl)pyridine-2-carboxylic acid (Compound A) were placed in 25 milliliter (mL) glass vials and diluted in a volume of 1.25% (v/v) Agri-Dex® crop oil concentrate to obtain stock solutions. Compound requirements are based upon a 12 mL application volume at a rate of 187 liters per hectare (L/ha). Spray solutions of the second cereal herbicide and experimental compound mixtures were prepared by adding the stock solutions to the appropriate amount of dilution solution to form 12 mL spray solution with active ingredients in two- and three-way combinations. Formulated compounds were applied to the plant material with an overhead Mandel track sprayer equipped with an 8002E nozzle calibrated to deliver 187 L/ha over an application area of 0.503 square meters (m^2) at a spray height of 18 inches (46 cm) above average plant canopy. Control plants were sprayed in the same manner with the solvent blank.
(§5) The treated plants and control plants were placed in a greenhouse as described above and watered by sub-irrigation to prevent wash-off of the test compounds. After 20-22 days, the condition of the test plants as compared with that of the control plants was determined visually and scored on a scale of 0 to 100 percent where 0 corresponds to no injury and 100 corresponds to complete kill. […]

APESV = assay: as above; type: in vivo, Apera spica-venti (L.) Beauv.
Description: as §1, with “When required to ensure good germination and healthy plants, a fungicide treatment and/or other chemical or physical treatment was applied.” left out
as §2, §3
as §4, with “Spray solutions of the second cereal herbicide and experimental compound mixtures were prepared by adding the stock solutions to the appropriate amount of dilution solution to form 12 mL spray solution with active ingredients in two- and three-way combinations.” left out
(§6) The treated plants and control plants were placed in a greenhouse as described above and watered by sub-irrigation to prevent wash-off of the test compounds. After 20-22 days, the condition of the test plants as compared with that of the control plants was determined visually and scored on a scale of 0 to 100 percent where 0 corresponds to no injury and 100 corresponds to complete kill.
(§7) Colby's equation was used to determine the herbicidal effects expected from the mixtures (Colby, S. R. 1967. Calculation of the synergistic and antagonistic response of herbicide combinations. Weeds 15:20-22.).
(§8) The following equation was used to calculate the expected activity of mixtures containing two active ingredients, A and B: Expected=A+B−(A×B/100)

KCHSC = assay: as above; type: in vivo, Kochia scoparia (L.) Schrad.
Description: as §1, with “When required to ensure good germination and healthy plants, a fungicide treatment and/or other chemical or physical treatment was applied.” left out
as §2, §3
as §4, with “Spray solutions of the second cereal herbicide and experimental compound mixtures were prepared by adding the stock solutions to the appropriate amount of dilution solution to form 12 mL spray solution with active ingredients in two- and three-way combinations.” left out
as §6, §7, §8

LOLMU = assay: as above; type: in vivo, Lolium multiflorum Lam.
Description: as §1, §2, §3, §4, §6, §7, §8

PHAMI = assay: as above; type: in vivo, Phalaris minor Retz.
Description: as §1, with “When required to ensure good germination and healthy plants, a fungicide treatment and/or other chemical or physical treatment was applied.” left out
as §2, §3
as §4, with “Spray solutions of the second cereal herbicide and experimental compound mixtures were prepared by adding the stock solutions to the appropriate amount of dilution solution to form 12 mL spray solution with active ingredients in two- and three-way combinations.” left out
as §6, §7, §8

CYPIR = assay: Example I postemergence foliar-applied, greenhouse, direct seeded rice weeds; type: in vivo, Cyperus iria L.
From the text: Seeds or nutlets of the desired test plant species were planted in a soil matrix prepared by mixing a loam or sandy loam soil (e.g., 28.6 percent silt, 18.8 percent clay, and 52.6 percent sand, with a pH of about 5.8 and an organic matter content of about 1.8 percent) and calcareous grit in an 80 to 20 ratio. The soil matrix was contained in plastic pots with a volume of 1 quart and a surface area of 83.6 square centimeters (cm^2). When required to ensure good germination and healthy plants, a fungicide treatment and/or other chemical or physical treatment was applied. The plants were grown for 8-22 days in a greenhouse with an approximate 14 hr. photoperiod which was maintained at about 29° C. during the day and 26° C. during the night. Nutrients (Peters Excel® 15-5-15 5-Ca 2-Mg and iron chelate) were applied in the irrigation solution as needed and water was added on a regular basis. Supplemental lighting was provided with overhead metal halide 1000-Watt lamps as necessary. The plants were employed for testing when they reached the first through fourth true leaf stage.
Treatments consisted of the acid or esters of 4-amino-3-chloro-5-fluoro-6-(4-chloro-2-fluoro-3-methoxy-phenyl)pyridine-2-carboxylic acid (Compound A), each formulated as an SC (suspension concentrate), and various herbicidal components alone and in combination.
Other herbicidal components were applied on an acid equivalent (ae) or active ingredient (ai) basis and included acetyl coA carboxylase (ACCase)-inhibiting herbicides (cyclohexanedione and aryloxyphenoxypropionate chemical classes) cyhalofop-butyl formulated as Clincher® SF (285 gr ai/L EC), diclofop-methyl formulated as Hoelon® 3EC, fenoxaprop-p-ethyl+isoxadifen-ethyl formulated as RiceStar® HT (0.58 lb./gal EC), fenoxaprop-p-ethyl+mefenpyr diethyl formulated as Puma® IEC, metamifop formulated as Metamifop EC, haloxyfop-methyl formulated as Gallant Super®, fluazifop-p-butyl formulated as Fusilade® DX, quizalofop-p-ethyl formulated as Assure® II, profoxydim formulated as Aura® 20EC, clethodim applied as Intensity®, sethoxydim formulated as Poast®, and tralkoxydim formulated as Achieve®.
Treatment requirements were calculated based upon the rates being tested, the concentration of active ingredient or acid equivalent in the formulation, and a 12 mL application volume at a rate of 187 L/ha.
For treatments comprised of formulated compounds, measured amounts of compounds were placed individually in 25 mL glass vials and diluted in a volume of 1.25% (v/v) Agri-Dex® crop oil concentrated to obtain 12× stock solutions. […] Application solutions were prepared by adding an appropriate amount of each stock solution (e.g., 1 mL) and diluted to the appropriate final concentrations with the addition of 10 mL of an aqueous mixture of 1.25% (v/v) crop oil concentrate so that the final spray solutions contained 1.25+/−0.05% (v/v) crop oil concentrate.
All stock solutions and applications solutions were visually inspected for compound compatibility prior to application. Spray solutions were applied to the plant material with an overhead Mandel track sprayer equipped with a 8002E nozzles calibrated to deliver 187 L/ha over an application area of 0.503 m^2 at a spray height of 18 to 20 inches (46 to 50 cm) above average plant canopy height. Control plants were sprayed in the same manner with the solvent blank.
as §5, with “After approximately 3 weeks,” for “After 20-22 days,”, “the untreated” for “the control”, “injury or growth inhibition” for “injury”

AVEFA = assay: Example IV postemergence foliar-applied, greenhouse, cereal crops weeds; type: in vivo, Avena fatua L.
Description: as §1, §2, §3, §4, §5

Row | SMILES | Visual Weed Control (%) - 21 DAA ALOMY Obs (ALOMY; Clodinafop-propargyl 15 gai/ha) | Visual Weed Control (%) - 21 DAA ALOMY Obs (ALOMY; Clodinafop-propargyl 30 gai/ha) | Visual Weed Control (%) - 21 DAA APESV Obs (APESV; Clodinafop-propargyl 15 gai/ha) | Visual Weed Control (%) - 21 DAA APESV Obs (APESV; Clodinafop-propargyl 30 gai/ha) | Visual Weed Control (%) - 21 DAA KCHSC Obs (KCHSC; Clodinafop-propargyl 15 gai/ha) | Visual Weed Control (%) - 21 DAA KCHSC Obs (KCHSC; Clodinafop-propargyl 30 gai/ha) | Visual Weed Control (%) - 21 DAA LOLMU Obs (LOLMU; Clodinafop-propargyl 15 gai/ha) | Visual Weed Control (%) - 21 DAA LOLMU Obs (LOLMU; Clodinafop-propargyl 30 gai/ha) | Visual Weed Control (%) - 21 DAA PHAMI Obs (PHAMI; Clodinafop-propargyl 15 gai/ha) | Visual Weed Control (%) - 21 DAA PHAMI Obs (PHAMI; Clodinafop-propargyl 30 gai/ha) | Visual Weed Control (%) - 22 DAA CYPIR Obs (CYPIR; 100 gai/ha) | Visual Weed Control (%) - 22 DAA CYPIR Obs (CYPIR; 200 gai/ha) | Visual Weed Control (%) - 21 DAA AVEFA Obs (AVEFA; Tralkoxydim 50 gai/ha) | Visual Weed Control (%) - 21 DAA AVEFA Obs (AVEFA; Tralkoxydim 100 gai/ha) | Visual Weed Control (%) - 21 DAA KCHSC Obs (KCHSC; Tralkoxydim 50 gai/ha) | Visual Weed Control (%) - 21 DAA KCHSC Obs (KCHSC; Tralkoxydim 100 gai/ha) | Visual Weed Control (%) - 21 DAA LOLMU Obs (LOLMU; Tralkoxydim 50 gai/ha) | Visual Weed Control (%) - 21 DAA LOLMU Obs (LOLMU; Tralkoxydim 100 gai/ha)
1 | C#CCOC(=O)[C@@H](C)Oc1ccc(Oc2ncc(Cl)cc2F)cc1 [Clodinafop-propargyl, 2-propynyl(2R)-2-[4-[(5-chloro-3-fluoro-2-pyridinyl)oxy]phenoxy]propanoate] | 80% | 82% | 15% | 68% | 0% | 10% | 60% | 48% | 48% | 55% |  |  |  |  |  |  |  | 
2 | CCO/N=C(/CC)C1=C(O)CC(c2c(C)cc(C)cc2C)CC1=O (stereo not drawn) [Tralkoxydim, 2-[1-(ethoxyimino)propyl]-3-hydroxy-5-(2,4,6-trimethylphenyl)-2-cyclohexen-1-one] |  |  |  |  |  |  |  |  |  |  | 0% | 0% | 78% | 99% | 10% | 0% | 86% | 96%
